Values of other authors, collected in US11447440B2, “Treprostinil monohydrate crystals and methods for preparation thereof” (CHIROGATE INTERNATIONAL INC., priority 2020, dated 2022).
Where two headings read alike, the source gives them in different places.

Conditions: for Treprostinil dimer formation on standing: stability tests

CCCCC[C@H](O)CC[C@@H]1[C@H]2Cc3c(cccc3OCC(=O)O)C[C@H]2C[C@H]1O.O [Treprostinil monohydrate crystal]
Treprostinil dimer formation (accelerated stability tests at 25° C., 30° C. and 40° C. for 6 months (Lot No. 01M07033)): almost negligible
stability in comparison with the anhydrous Treprostinil crystal (storage at room temperature over a long period of time): more stable

CCCCC[C@H](O)CC[C@@H]1[C@H]2Cc3cccc(OCC(=O)O)c3C[C@H]2C[C@H]1O [anhydrous Treprostinil]
Treprostinil dimer formation on standing (at 5° C.): negligible
Treprostinil dimer formation on standing (at higher temperature (than 25° C.)): increased
Treprostinil dimer formation on standing (standing at 25° C.): continuing to form
